Assay results as given in article PMC10066365, “Nemacol is a small molecule inhibitor of C. elegans vesicular acetylcholine transporter with anthelmintic potential” (Nature Communications, 2023).
Several values for one entry are separate records, joined by “and”; a condition that tells them apart may be missing. Equal entries are not always repeated.

How the values were obtained:
C. elegans = C. elegans motor phenotype scoring on solid media (Punc/jerky-unc, coiled, paralyzed), wild-type young adults; format: in vivo, Caenorhabditis elegans; conditions: for atypical locomotion (number of animals) / coiled (number of animals) / no phene (number of animals) / paralyzed (number of animals) / any phene: mean % fraction of young adults exhibiting any phenotype (coiled, jerky-Unc or paralyzed): one hour; for atypical locomotion (number of animals) / coiled (number of animals) / no phene (number of animals) / paralyzed (number of animals): young adults, 20 animals per trial, single technical replicate; for any phene: mean % fraction of young adults exhibiting any phenotype (coiled, jerky-Unc or paralyzed): mean of three biological replicates; for EC50: Caenorhabditis elegans, any motor phenotype after 1 h on solid media, ± 95% CI, read-out: C. elegans - motor disruption EC50
[1] = tested on: Dirofilaria immitis microfilariae; assay: Dirofilaria immitis microfilariae immobility assay (DiroImager, 72 h); conditions: Dirofilaria immitis microfilariae
Method in brief: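 Motility read after 72 h drug exposure with an image-based high-throughput plate imager, 1% DMSO medium serving as negative control. Missouri-isolate microfilariae, roughly 250 per well, freshly purified and cultured in supplemented RPMI 1640.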

[2] = tested on: Dirofilaria immitis L3/L4; assay: Dirofilaria immitis L3/L4 motility assay (DiroImager, 72 h); conditions: Dirofilaria immitis L4
Pristionchus pacificus = Pristionchus pacificus motor disruption dose-response on solid media, 1 h; conditions: for mean % any phene (coiled, jerky-Unc or paralyzed): Pristionchus pacificus young adults; for mean % any phene (coiled, jerky-Unc or paralyzed) / mean % any phene: mean of three biological replicates; for EC50: Pristionchus pacificus, 1 h, read-out: P. pacificus motor disruption EC50; for mean % any phene: any phenotype (coiled, jerky-Unc or paralyzed) at one hour; for rep 1 atypical locomotion / rep 1 coiled / rep 1 no phene / rep 1 paralyzed / rep 2 atypical locomotion / rep 2 coiled / rep 2 no phene / rep 2 paralyzed / rep 3 atypical locomotion / rep 3 coiled / rep 3 no phene / rep 3 paralyzed: count of 20 animals per trial, one hour
[3] = conc 3.75, observed at one hour

## Fc1ccc(N2CCN(C3CCCCCC3)CC2)cc1 [Nemacol-51]
C. elegans; 3.75uM
  atypical locomotion (number of animals): 7 and 4 and 2 and 14 and 17
  coiled (number of animals): 0 and 4 and 2
  no phene (number of animals): 13 and 16 and 18 and 2 and 1
  paralyzed (number of animals): 0
C. elegans; 15uM
  atypical locomotion (number of animals): 13 and 14 and 15 and 6 and 7
  coiled (number of animals): 1 and 3 and 5 and 2 and 8
  no phene (number of animals): 6 and 2 and 3 and 0
  paralyzed (number of animals): 0 and 1 and 6 and 8
  any phene: mean % fraction of young adults exhibiting any phenotype (coiled, jerky-Unc or paralyzed): 89.1667%
C. elegans; 60uM
  atypical locomotion (number of animals): 3 and 1 and 4 and 0
  coiled (number of animals): 14 and 17 and 11 and 15
  no phene (number of animals): 0
  paralyzed (number of animals): 3 and 2 and 5
C. elegans
  EC50: 4.2 ± 2.3 µM
[1]; 0.016 µM
  % effect (motility), DIROIM MF: 0%
[1]; 0.08 µM
  % effect (motility), DIROIM MF: 0%
[1]; 0.4 µM
  % effect (motility), DIROIM MF: 0%
[1]; 2 µM
  % effect (motility), DIROIM MF: 0%
[1]; 10 µM
  % effect (motility), DIROIM MF: 0%
[2]; 10 µM
  % effect (motility), DIROIM L4: 0%
[2]; 50 µM
  % effect (motility), DIROIM L4: 10%
Pristionchus pacificus; [3]
  mean % any phene (coiled, jerky-Unc or paralyzed): 2.5%
Pristionchus pacificus; conc 15, observed at one hour
  mean % any phene (coiled, jerky-Unc or paralyzed): 60%
Pristionchus pacificus; conc 60, observed at one hour
  mean % any phene (coiled, jerky-Unc or paralyzed): 85%
Pristionchus pacificus
  EC50: 13.2 ± 3 µM

## FC(F)(F)c1cccc(N2CCN(C3CCCCCC3)CC2)c1 [Nemacol-52]
C. elegans; 3.75uM
  atypical locomotion (number of animals): 14 and 12 and 10 and 8 and 15
  coiled (number of animals): 0
  no phene (number of animals): 4 and 6 and 10 and 12 and 5
  paralyzed (number of animals): 2 and 0
  any phene: mean % fraction of young adults exhibiting any phenotype (coiled, jerky-Unc or paralyzed): 64.1667%
C. elegans; 15uM
  atypical locomotion (number of animals): 12 and 7 and 8 and 10 and 13 and 9
  coiled (number of animals): 0 and 7 and 4 and 5
  no phene (number of animals): 0
  paralyzed (number of animals): 8 and 13 and 5 and 6 and 2 and 7
  any phene: mean % fraction of young adults exhibiting any phenotype (coiled, jerky-Unc or paralyzed): 100%
C. elegans; 60uM
  atypical locomotion (number of animals): 12 and 8 and 7 and 6 and 13
  coiled (number of animals): 0 and 1
  no phene (number of animals): 0
  paralyzed (number of animals): 8 and 12 and 13 and 7
  any phene: mean % fraction of young adults exhibiting any phenotype (coiled, jerky-Unc or paralyzed): 100%
C. elegans
  EC50: 3.6 µM
[1]; 0.016 µM
  % effect (motility), DIROIM MF: 0%
[1]; 0.08 µM
  % effect (motility), DIROIM MF: 0%
[1]; 0.4 µM
  % effect (motility), DIROIM MF: 0%
[1]; 2 µM
  % effect (motility), DIROIM MF: 0%
[1]; 10 µM
  % effect (motility), DIROIM MF: 0%
[2]; 2 µM
  % effect (motility), DIROIM L4: 0%
[2]; 10 µM
  % effect (motility), DIROIM L4: 0%
[2]; 50 µM
  % effect (motility), DIROIM L4: 15%
Pristionchus pacificus; [3]
  mean % any phene (coiled, jerky-Unc or paralyzed): 5%
Pristionchus pacificus; conc 15, observed at one hour
  mean % any phene (coiled, jerky-Unc or paralyzed): 21.6667%
Pristionchus pacificus; conc 60, observed at one hour
  mean % any phene (coiled, jerky-Unc or paralyzed): 97.5%
Pristionchus pacificus
  EC50: 21.7 ± 3.7 µM

## c1ccc(N2CCN(C3CCCCCCC3)CC2)cc1 [Nemacol-54]
C. elegans; 3.75uM
  atypical locomotion (number of animals): 7 and 14 and 6 and 3 and 12 and 10
  coiled (number of animals): 0
  no phene (number of animals): 11 and 4 and 14 and 17 and 8 and 10
  paralyzed (number of animals): 2 and 0
  any phene: mean % fraction of young adults exhibiting any phenotype (coiled, jerky-Unc or paralyzed): 46.6667%
C. elegans; 15uM
  atypical locomotion (number of animals): 8 and 13 and 15 and 18 and 17
  coiled (number of animals): 2 and 1 and 0
  no phene (number of animals): 0 and 5 and 3
  paralyzed (number of animals): 10 and 6 and 0 and 1
  any phene: mean % fraction of young adults exhibiting any phenotype (coiled, jerky-Unc or paralyzed): 93.3333%
C. elegans; 60uM
  atypical locomotion (number of animals): 2 and 4 and 6 and 5 and 3
  coiled (number of animals): 8 and 7 and 5 and 4 and 9
  no phene (number of animals): 0
  paralyzed (number of animals): 10 and 9 and 8 and 11
C. elegans
  EC50: 4 ± 1.1 µM
[1]; 0.016 µM
  % effect (motility), DIROIM MF: 0%
[1]; 0.08 µM
  % effect (motility), DIROIM MF: 0%
[1]; 0.4 µM
  % effect (motility), DIROIM MF: 0%
[1]; 2 µM
  % effect (motility), DIROIM MF: 0%
[1]; 10 µM
  % effect (motility), DIROIM MF: 0%
[2]; 10 µM
  % effect (motility), DIROIM L4: 0%
[2]; 50 µM
  % effect (motility), DIROIM L4: 25%
Pristionchus pacificus
  EC50: 52.4 µM
Pristionchus pacificus; conc 3.75
  mean % any phene: 0%
  rep 1 atypical locomotion: 0
  rep 1 coiled: 0
  rep 1 no phene: 20
  rep 1 paralyzed: 0
  rep 2 atypical locomotion: 0
  rep 2 coiled: 0
  rep 2 no phene: 20
  rep 2 paralyzed: 0
  rep 3 atypical locomotion: 0
  rep 3 coiled: 0
  rep 3 no phene: 20
  rep 3 paralyzed: 0
Pristionchus pacificus; conc 15
  mean % any phene: 0%
  rep 1 atypical locomotion: 0
  rep 1 coiled: 0
  rep 1 no phene: 20
  rep 1 paralyzed: 0
  rep 2 atypical locomotion: 0
  rep 2 coiled: 0
  rep 2 no phene: 20
  rep 2 paralyzed: 0
  rep 3 atypical locomotion: 0
  rep 3 coiled: 0
  rep 3 no phene: 20
  rep 3 paralyzed: 0
Pristionchus pacificus; conc 60
  mean % any phene: 92.5%
  rep 1 atypical locomotion: 6 and 10
  rep 1 coiled: 5 and 4
  rep 1 no phene: 5 and 4
  rep 1 paralyzed: 4 and 2
  rep 2 atypical locomotion: 12 and 10
  rep 2 coiled: 5 and 7
  rep 2 no phene: 0
  rep 2 paralyzed: 3
  rep 3 atypical locomotion: 9 and 10
  rep 3 coiled: 8 and 7
  rep 3 no phene: 0
  rep 3 paralyzed: 3
